# US20120201768A1, “COSMETIC COMPOSITIONS COMPRISING FICUS SERUM FRACTION AND METHODS TO REDUCE THE APPEARANCE OF SKIN HYPERPIGMENTATION” (priority 2010, published 2012)
# System: hyperpigmented spots
# Experiment: In vivo testing for hyperpigmented spot reduction and melanin evenness (9 week split face study)
# Parameters: species or system humans
# Conditions: for Melanin Evenness versus Vehicle / NC2 SAF (spot area fraction) versus Vehicle: vehicle+0.55% FSF or vehicle+5% Niacinamide, twice daily, split face
# Description: A 9 week in-vivo study was conducted using a round robin, vehicle controlled, split face design including a 1 week normalization period with 270 subjects. The 270 subjects were screened according to inclusion/exclusion criteria which included the following:
# Has hyperpigmented spots around cheek and/or periorbital area on both sides of the face.
# Has at least 1 hyperpigmented spot of 8-10 mm diameter, 4 spots of 4-6 mm or 10 spots of 2-3 mm diameter (sun spots, freckles, or melasma spots) or equivalent spot area in the cheek area on each side of their face.
# Is willing to refrain from sun exposure by using supplied UV lotion and physical UV blocks, such as a hat, to avoid facial sunburn, tanning or wind burn.
# Has been diagnosed as having atopy, eczema, psoriasis, or other chronic skin diseases.
# Has obvious signs of facial skin disease (e.g., more than 5 pimples, areas of red scaling skin, superficial thin blood vessels, etc.).
# Has significant areas of discoloration or scarring on the face.
# Has more than 3 prominent moles (<3 mm) on the face.
# Two hundred and seventy subjects were recruited for the study. […] Each subject received two coded test formulations for twice daily application to each half of the face. Images of the facial treatment sites were captured at baseline (week 0), and after 4 and 8 weeks of treatment and analyzed for changes to skin color and spot size and color. The product formulations included a vehicle control, the vehicle+0.55% FSF, and the vehicle+5% vitamin B3 compound (Niacinamide).
# Noncontact spectrophotometric intracutaneous analysis (SiaScopy, Astron Clinica, UK) was used to collect and analyze the subject images. The method used a digital camera (e.g., Fuji S2 digital SLR) as a […] and a flash lighting source (e.g., Sigma Super flash light source) to recover facial chromophore information. A cross polarized filter was placed in front of the camera and the lighting source to eliminate specular reflection.
# Chromophore mapping of the concentration and distribution of eumelanin (melanin) and oxyhaemoglobin produces grayscale concentration maps of each of these chromophores. Image analysis software, such as Optimas 6.5, can be used to select a region of interest in each chromophore map from which mean grayscale values and spot area fraction are calculated. Spot area fraction refers to total area occupied by melanin spots as a percentage of the whole region of interest. A description of one type of chromophore mapping can be found in EP 1,810,614 and “The Distribution of Melanin in Skin Determined In Vivo”, British Journal of Dermatology, 2007, pp 620-628.
# Table 15 summarizes the image analysis data, wherein SAF is the mean Spot Area Fraction and A SAF is the mean change in Spot Area Fraction from baseline (week 0).
structure (smiles),measurement,setting,value
NC(=O)c1cccnc1 [Niacinamide],Melanin Evenness versus Vehicle,4 weeks,ns (ns = not significant (p > 0.3))
same,NC2 SAF (spot area fraction) versus Vehicle,4 weeks,ns (ns = not significant (p > 0.3))
same,Melanin Evenness versus Vehicle,8 weeks,Sig
same,NC2 SAF (spot area fraction) versus Vehicle,8 weeks,Sig
same,reduction of hyperpigmented spots (in words),"after 8 weeks, vehicle+0.55% FSF, vehicle+5% vitamin B3, control",best performer
